Tests used:
Settings in all cases: Compound concentration 10.0 uM
[1] = molecular target: T1, 5-hydroxytryptamine receptor 1A (Homo sapiens) (UniProt P08908)
T1 sequence (whole entry): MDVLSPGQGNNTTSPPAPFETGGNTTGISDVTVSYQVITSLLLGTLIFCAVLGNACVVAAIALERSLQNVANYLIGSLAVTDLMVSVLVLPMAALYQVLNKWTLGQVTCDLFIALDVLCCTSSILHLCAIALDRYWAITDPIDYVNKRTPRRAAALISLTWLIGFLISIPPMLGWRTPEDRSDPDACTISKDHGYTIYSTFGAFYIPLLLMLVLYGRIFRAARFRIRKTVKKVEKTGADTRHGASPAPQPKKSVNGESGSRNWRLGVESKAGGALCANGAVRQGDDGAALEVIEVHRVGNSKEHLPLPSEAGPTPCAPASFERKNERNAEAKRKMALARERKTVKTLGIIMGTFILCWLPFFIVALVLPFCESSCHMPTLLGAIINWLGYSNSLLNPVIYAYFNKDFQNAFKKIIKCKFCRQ

[2] = molecular target: 5-hydroxytryptamine receptor 1B (Homo sapiens) (UniProt P28222)
[3] = molecular target: 5-hydroxytryptamine receptor 1D (Homo sapiens) (UniProt P28221)
Chain of 5-hydroxytryptamine receptor 1D (Homo sapiens) (P28221 whole entry): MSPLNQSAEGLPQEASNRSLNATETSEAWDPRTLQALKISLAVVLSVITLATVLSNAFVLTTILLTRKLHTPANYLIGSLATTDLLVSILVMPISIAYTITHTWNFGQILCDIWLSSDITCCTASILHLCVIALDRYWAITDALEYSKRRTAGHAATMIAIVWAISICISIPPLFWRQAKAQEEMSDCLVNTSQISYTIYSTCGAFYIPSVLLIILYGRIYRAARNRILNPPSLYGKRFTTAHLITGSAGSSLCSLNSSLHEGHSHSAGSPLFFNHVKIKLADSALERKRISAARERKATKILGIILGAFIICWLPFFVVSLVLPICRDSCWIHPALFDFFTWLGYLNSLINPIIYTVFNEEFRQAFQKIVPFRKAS

[4] = molecular target: 5-hydroxytryptamine receptor 2B (Homo sapiens, UniProt P41595)
Chain of 5-hydroxytryptamine receptor 2B (P41595 whole entry): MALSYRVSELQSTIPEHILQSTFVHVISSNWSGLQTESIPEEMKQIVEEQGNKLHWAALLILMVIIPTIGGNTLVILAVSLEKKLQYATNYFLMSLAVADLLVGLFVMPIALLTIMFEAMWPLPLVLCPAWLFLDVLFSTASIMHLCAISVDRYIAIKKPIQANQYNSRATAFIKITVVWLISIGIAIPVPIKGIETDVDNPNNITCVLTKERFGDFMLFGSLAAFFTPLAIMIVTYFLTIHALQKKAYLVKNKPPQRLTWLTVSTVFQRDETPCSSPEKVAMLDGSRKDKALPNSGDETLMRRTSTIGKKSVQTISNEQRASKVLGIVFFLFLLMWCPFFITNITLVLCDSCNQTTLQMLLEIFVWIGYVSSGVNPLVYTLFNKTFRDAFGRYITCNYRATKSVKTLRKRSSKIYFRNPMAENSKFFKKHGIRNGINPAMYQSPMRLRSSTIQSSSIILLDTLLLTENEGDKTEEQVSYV

[5] = molecular target: 5-hydroxytryptamine receptor 5A (Homo sapiens) (UniProt P47898)
[6] = molecular target: 5-hydroxytryptamine receptor 7 (Homo sapiens, UniProt P34969)
Chain of 5-hydroxytryptamine receptor 7 (P34969 whole entry): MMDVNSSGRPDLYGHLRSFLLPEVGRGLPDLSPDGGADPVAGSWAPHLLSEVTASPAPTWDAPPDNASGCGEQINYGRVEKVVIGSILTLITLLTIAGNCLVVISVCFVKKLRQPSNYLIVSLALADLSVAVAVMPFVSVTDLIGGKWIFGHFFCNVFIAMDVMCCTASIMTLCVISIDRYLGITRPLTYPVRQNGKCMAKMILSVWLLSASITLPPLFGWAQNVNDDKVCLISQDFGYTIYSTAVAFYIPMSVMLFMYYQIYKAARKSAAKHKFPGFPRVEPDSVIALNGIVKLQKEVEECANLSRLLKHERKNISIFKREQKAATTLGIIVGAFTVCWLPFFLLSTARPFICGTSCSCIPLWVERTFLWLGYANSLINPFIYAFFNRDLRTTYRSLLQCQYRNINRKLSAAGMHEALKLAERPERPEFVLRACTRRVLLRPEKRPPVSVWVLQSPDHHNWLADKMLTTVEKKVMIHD

[7] = molecular target: D(3) dopamine receptor (Homo sapiens) (UniProt P35462)
Chain of D(3) dopamine receptor (Homo sapiens) (P35462 whole entry): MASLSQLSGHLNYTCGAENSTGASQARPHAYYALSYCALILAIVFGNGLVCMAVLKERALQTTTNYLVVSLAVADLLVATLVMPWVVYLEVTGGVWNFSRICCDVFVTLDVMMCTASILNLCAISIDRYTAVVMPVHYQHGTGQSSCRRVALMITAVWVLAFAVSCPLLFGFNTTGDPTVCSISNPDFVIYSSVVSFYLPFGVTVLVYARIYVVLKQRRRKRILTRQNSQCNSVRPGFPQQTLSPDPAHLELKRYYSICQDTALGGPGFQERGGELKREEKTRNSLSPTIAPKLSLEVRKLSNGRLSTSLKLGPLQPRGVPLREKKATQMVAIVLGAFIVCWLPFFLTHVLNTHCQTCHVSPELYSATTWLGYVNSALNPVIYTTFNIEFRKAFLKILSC

[8] = molecular target: D(4) dopamine receptor (Homo sapiens) (UniProt P21917)
[9] = molecular target: Sodium-dependent dopamine transporter (Homo sapiens, UniProt Q01959)
Chain of Sodium-dependent dopamine transporter (Q01959 whole entry): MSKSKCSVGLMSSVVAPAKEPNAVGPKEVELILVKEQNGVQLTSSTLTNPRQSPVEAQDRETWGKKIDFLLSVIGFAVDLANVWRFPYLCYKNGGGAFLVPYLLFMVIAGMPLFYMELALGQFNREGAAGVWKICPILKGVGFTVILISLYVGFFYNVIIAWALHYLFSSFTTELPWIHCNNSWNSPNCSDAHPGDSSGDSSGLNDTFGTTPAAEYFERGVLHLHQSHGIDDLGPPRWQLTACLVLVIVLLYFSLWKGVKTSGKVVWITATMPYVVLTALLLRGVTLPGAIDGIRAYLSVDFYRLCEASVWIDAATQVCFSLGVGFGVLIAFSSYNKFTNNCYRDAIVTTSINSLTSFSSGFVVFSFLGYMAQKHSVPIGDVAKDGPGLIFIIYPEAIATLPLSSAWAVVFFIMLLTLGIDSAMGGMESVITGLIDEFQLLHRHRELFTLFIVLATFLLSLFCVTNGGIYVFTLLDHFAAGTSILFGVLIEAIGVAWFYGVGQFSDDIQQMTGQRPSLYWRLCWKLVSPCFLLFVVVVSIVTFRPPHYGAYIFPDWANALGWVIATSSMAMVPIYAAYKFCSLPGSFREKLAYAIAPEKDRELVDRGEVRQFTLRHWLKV

[10] = molecular target: Delta-type opioid receptor (Homo sapiens) (UniProt P41143)
[11] = molecular target: Kappa-type opioid receptor (Homo sapiens) (UniProt P41145)
Chain of Kappa-type opioid receptor (Homo sapiens) (P41145 whole entry): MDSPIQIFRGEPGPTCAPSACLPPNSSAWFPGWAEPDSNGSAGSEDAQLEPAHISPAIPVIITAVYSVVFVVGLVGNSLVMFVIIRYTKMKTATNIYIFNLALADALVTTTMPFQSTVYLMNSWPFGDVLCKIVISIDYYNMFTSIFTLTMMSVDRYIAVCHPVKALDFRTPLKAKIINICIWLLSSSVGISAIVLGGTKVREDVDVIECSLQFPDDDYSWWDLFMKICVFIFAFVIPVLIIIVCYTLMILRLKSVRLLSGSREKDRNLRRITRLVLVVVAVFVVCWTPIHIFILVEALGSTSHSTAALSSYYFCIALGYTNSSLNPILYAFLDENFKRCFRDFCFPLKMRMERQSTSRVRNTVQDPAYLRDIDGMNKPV

[12] = molecular target: Histamine H1 receptor (Homo sapiens) (UniProt P35367)
Chain of Histamine H1 receptor (Homo sapiens) (P35367 whole entry): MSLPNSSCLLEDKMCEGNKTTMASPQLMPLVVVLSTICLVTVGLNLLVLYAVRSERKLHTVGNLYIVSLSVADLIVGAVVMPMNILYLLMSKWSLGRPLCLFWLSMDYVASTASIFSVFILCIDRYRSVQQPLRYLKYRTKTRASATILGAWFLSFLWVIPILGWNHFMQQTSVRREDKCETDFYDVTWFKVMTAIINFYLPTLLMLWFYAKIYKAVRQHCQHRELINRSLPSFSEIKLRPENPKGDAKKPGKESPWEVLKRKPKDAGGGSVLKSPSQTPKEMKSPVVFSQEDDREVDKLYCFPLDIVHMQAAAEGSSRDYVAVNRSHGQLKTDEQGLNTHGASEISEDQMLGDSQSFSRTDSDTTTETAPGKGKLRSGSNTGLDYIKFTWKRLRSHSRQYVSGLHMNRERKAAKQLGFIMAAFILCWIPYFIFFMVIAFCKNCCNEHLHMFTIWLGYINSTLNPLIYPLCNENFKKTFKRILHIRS

[13] = molecular target: Histamine H3 receptor (Homo sapiens) (UniProt Q9Y5N1)
[14] = molecular target: Alpha-1A adrenergic receptor (Homo sapiens) (UniProt P35348)
Chain of Alpha-1A adrenergic receptor (Homo sapiens) (P35348 whole entry): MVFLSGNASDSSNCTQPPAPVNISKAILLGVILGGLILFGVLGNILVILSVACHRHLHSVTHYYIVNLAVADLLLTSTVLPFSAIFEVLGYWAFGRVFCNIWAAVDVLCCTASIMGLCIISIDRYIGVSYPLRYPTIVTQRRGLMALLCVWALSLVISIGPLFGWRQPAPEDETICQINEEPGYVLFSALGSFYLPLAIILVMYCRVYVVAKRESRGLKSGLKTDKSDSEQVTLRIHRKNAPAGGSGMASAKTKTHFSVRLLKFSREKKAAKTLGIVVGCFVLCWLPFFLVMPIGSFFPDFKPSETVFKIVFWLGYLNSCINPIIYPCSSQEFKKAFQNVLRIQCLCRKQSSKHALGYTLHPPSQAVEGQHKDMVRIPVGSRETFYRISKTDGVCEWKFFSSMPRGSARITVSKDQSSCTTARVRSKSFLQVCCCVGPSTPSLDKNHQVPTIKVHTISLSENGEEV

[15] = molecular target: T2, Alpha-2B adrenergic receptor (Homo sapiens) (UniProt P18089)
T2 sequence (whole entry): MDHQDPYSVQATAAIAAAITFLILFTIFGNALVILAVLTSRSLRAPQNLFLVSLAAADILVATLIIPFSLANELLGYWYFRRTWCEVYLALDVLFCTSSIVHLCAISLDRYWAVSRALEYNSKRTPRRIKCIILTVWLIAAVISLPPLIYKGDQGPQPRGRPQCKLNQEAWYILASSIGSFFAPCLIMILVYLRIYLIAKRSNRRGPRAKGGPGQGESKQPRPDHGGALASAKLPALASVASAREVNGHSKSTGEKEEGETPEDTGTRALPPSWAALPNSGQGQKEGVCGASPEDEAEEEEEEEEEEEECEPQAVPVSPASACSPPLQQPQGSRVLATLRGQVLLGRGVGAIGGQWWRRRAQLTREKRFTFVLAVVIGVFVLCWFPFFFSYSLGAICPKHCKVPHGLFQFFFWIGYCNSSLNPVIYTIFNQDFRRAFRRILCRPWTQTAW

[16] = molecular target: Alpha-2C adrenergic receptor (Homo sapiens) (UniProt P18825)
[17] = molecular target: Beta-1 adrenergic receptor (Homo sapiens) (UniProt P08588)
[18] = molecular target: Beta-2 adrenergic receptor (Homo sapiens) (UniProt P07550)
Chain of Beta-2 adrenergic receptor (Homo sapiens) (P07550 whole entry, looked up): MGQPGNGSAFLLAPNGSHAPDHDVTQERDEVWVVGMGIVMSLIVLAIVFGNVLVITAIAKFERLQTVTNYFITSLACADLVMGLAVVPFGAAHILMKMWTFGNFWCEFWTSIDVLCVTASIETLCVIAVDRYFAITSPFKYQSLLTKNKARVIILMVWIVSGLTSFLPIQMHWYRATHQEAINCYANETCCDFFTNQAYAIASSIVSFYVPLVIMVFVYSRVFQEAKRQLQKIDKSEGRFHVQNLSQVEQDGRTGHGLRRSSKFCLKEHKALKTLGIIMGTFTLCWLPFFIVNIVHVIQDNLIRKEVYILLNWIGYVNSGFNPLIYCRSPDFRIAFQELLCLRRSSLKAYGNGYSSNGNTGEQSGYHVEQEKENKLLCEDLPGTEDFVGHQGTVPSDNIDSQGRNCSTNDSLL

[19] = molecular target: T3, Muscarinic acetylcholine receptor M2 (Homo sapiens) (UniProt P08172)
T3 sequence (whole entry): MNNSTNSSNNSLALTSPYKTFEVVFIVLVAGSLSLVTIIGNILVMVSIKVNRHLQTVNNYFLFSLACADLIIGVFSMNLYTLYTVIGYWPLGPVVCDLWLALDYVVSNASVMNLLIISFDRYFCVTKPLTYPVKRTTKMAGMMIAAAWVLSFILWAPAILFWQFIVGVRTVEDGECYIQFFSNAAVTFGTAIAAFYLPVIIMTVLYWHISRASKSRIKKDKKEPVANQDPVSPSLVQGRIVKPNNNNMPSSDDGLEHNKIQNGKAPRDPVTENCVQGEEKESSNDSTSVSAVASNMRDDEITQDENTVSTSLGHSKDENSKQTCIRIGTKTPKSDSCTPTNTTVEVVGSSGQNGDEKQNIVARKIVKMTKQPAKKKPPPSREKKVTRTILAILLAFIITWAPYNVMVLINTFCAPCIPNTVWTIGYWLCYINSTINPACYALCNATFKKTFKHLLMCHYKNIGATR

[20] = molecular target: GABA-A receptor; anion channel (Rattus norvegicus) (UniProt O09028+P15431+P18506+P18508+P19969+P20236+P23574+P23576+P28471+P28473+P30191+P62813+P63079+P63138+Q91ZM7+Q9ES14)
[21] = molecular target: Alpha-1D adrenergic receptor (Homo sapiens) (UniProt P25100)
Chain of Alpha-1D adrenergic receptor (Homo sapiens) (P25100 whole entry): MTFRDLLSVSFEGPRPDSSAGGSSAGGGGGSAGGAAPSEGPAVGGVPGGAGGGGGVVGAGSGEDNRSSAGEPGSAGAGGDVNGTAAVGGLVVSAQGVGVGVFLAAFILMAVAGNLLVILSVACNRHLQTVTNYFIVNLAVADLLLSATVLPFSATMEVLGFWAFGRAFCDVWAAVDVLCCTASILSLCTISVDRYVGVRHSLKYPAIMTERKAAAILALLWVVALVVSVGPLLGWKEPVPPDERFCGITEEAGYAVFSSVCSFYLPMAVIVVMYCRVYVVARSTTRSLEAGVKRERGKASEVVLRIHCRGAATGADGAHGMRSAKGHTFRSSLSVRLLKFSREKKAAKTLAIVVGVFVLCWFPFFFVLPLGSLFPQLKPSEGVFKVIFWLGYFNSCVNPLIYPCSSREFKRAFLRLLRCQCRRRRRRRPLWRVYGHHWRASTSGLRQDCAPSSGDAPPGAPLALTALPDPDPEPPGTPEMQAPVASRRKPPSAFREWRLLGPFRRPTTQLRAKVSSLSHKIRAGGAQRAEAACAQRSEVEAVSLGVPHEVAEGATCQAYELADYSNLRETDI

[22] = molecular target: Sigma intracellular receptor 2 (Homo sapiens) (UniProt Q5BJF2)
Chain of Sigma intracellular receptor 2 (Homo sapiens) (Q5BJF2 whole entry): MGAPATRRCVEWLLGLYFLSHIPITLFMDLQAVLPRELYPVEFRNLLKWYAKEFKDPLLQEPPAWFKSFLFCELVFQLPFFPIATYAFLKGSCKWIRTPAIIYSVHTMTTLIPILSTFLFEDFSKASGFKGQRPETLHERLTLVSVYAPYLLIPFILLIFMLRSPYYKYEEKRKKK

[23] = molecular target: Sigma non-opioid intracellular receptor 1 (Homo sapiens) (UniProt Q99720)
[24] = molecular target: Serine/threonine-protein kinase haspin (Homo sapiens) (UniProt Q8TF76); test: germ cell associated 2 (haspin) Millipore kinase panel
[25] = species on record: Homo sapiens; test: p21 protein -activated kinase 2 Millipore kinase panel
[26] = molecular target: Protein-tyrosine kinase 6 (Homo sapiens) (UniProt Q13882); test: PTK6 protein tyrosine kinase 6 Millipore kinase panel
[27] = molecular target: Rho-associated protein kinase 1 (Homo sapiens) (UniProt Q13464); test: Rho-associated, coiled-coil containing protein kinase 1 Millipore kinase panel
[28] = molecular target: 5-hydroxytryptamine receptor 6 (Homo sapiens) (UniProt P50406); test: h5HT6 Cerep panel

Structure (SMILES)	inhibition [1] [%]	inhibition [2] [%]	inhibition [3] [%]	inhibition [4] [%]	inhibition [5] [%]	inhibition [6] [%]	inhibition [7] [%]	inhibition [8] [%]	inhibition [9] [%]	inhibition [10] [%]	inhibition [11] [%]	inhibition [12] [%]	inhibition [13] [%]	inhibition [14] [%]	inhibition [15] [%]	inhibition [16] [%]	inhibition [17] [%]	inhibition [18] [%]	inhibition [19] [%]	inhibition [20] [%]	further results
c1ccc(C2CCN(c3cnc4c(N5CCOCC5)nccn34)CC2)cc1	25.7	8.68	1.09	17.7	19	20.2	-6.13	0.44	85.9	2.73	6.44	11.2	7.29	22.5	31.4	16.5	23.5	8.86	9.44	22.2	inhibition [21]: 10.7%; inhibition [22]: 31.6%; inhibition [23]: 44%
COCCc1ccc(-c2c(C)nc3c(N4CCOCC4)ccnn23)cn1 [JNJ-42396302]	22.9	-0.76	11.5	52.2	3.93	96.1	24.1	-3.39	9.55	7.84	14.5	24.6	3.7	23	78.2	41.3	3.43	-1.12	10.4	34	inhibition [24]: 5%; inhibition [25]: -3%; inhibition [26]: -6%; inhibition [27]: -6%; effect [28]: 4.9%; inhibition [21]: 15.3%; inhibition [22]: 3.07%; inhibition [23]: -2.53%

Reference: ChEMBL document CHEMBL4800727 (2021)
